The test system of experiment [1] is SMOV2 (A). The experiment in a line: SRB proliferation assay, SMOV2 (PPM1D amplified). The class given is cell-based. The conditions noted are these: Homo sapiens, SMOV2, PP1MD amplified cell line (A). From the text:
(§1) All cell lines were obtained from ATCC except KPL1 which was obtained from Leibniz Institute DSMZ-German Collection of Microorganisms and Cell Cultures, and SMOV2 which was obtained from Dr. Hiroaki Itamochi (Tottori University School of Medicine, Yonago, Japan; see also: ‘Establishment and characterization of human ovarian clear cell adenocarcinoma cell line (SMOV-2), and its cytotoxity by anticancer agents’, Yonamine K at al., Hum Cell., 1999, 12(3), 139-48; and ‘PPM1D Is a Potential Therapeutic Target in Ovarian Clear Cell Carcinoma’, David S. P. Tan et al., Clin Cancer Res, 2009, 15, 2269).
(§2) Representative compounds were assessed in a sulforhodamine B (SRB) proliferation assay in the cell lines shown in the Tables below, according to the following general procedure:
(§3) Cells were seeded in a 96 well plate at a number optimized for each cell line as known in the art; for example as described in Viachai et al, Nature Protocols, 2006, 1 1112-1116. Two fold dilutions of the compounds to be tested were made in culture medium so that, when diluted 5×, the final concentration in the wells was from 50 μM to 0.000191 μM (19 concentrations). A day after seeding the cells in 96 well plates, 25 μl of the compound diluted in the culture medium was added to 100 μl of the cells and incubated at 37° C. and 5% CO2 for 3 or 5 more days as required. After this time, cells were fixed by adding 10% ice cold TCA (in H2O) to 3% final concentration in the wells and by incubating at 4° C. for at least 2 h. Plates were washed 4 times in H2O and allowed to dry in the air. Added 100 μl of 0.057% SRB solution to the dried plates and incubated at room temperature for at least 30 min. Removed SRB solution from the plates and washed four times with 1% acetic acid. Plates were left overnight to dry in the air followed by addition of 100 μl of 10 mM Tris pH 10.5 to each well of the dried plates and incubation on a shaker for 5 min to solubilize the SRB. Optical density was measured at wave length of 490 nm using a plate reader and analysis performed to measure the GI50 using GraphPad PRISM.
(In SRB staining, fixed cells bind dye roughly in proportion to their protein.)

Experiment [2] relates to TOV21G (NA). The experiment in a line: SRB proliferation assay, TOV21G (non-amplified control). The class given is cell-based. The following applies: 5-day incubation, control not amplified (NA).
From the text: as §1, §2, §3

Experiment [3] deals with MCF7 (A). The experiment in a line: SRB proliferation assay, MCF7 (amplified). The following applies: MCF7a, 120 h, 5-day incubation. The class given is cell-based.
From the text: as §1, §2
(§4) Cells were seeded in a 96 well plate at a number optimized for each cell line as known in the art; for example as described in Viachai et al, Nature Protocols, 2006, 1 1112-1116. Two fold dilutions of the compounds to be tested were made in culture medium so that, when diluted 5×, the final concentration in the wells was from 50 μM to 0.000191 μM (19 concentrations). […] Optical density was measured at wave length of 490 nm using a plate reader and analysis performed to measure the GI50 using GraphPad PRISM.

The test system of experiment [4] is KPL1 (A). Put plainly: SRB proliferation assay, KPL1 (amplified). Format: cell-based. The following applies: KPL-1, 120 h, 5-day incubation.
From the text: as §1, §2, §4

The test system of experiment [5] is MDAMB231 (NA). The experiment in a line: SRB proliferation assay, MDAMB231 (non-amplified). The class given is cell-based. The following applies: Homo sapiens, MDA-MB-231, 120 h; 5-day incubation; MDAMB231, not amplified (NA).
From the text: as §1, §2, §4

The subject of experiment [6] is HeLa (NA). The experiment in a line: SRB proliferation assay, HeLa (non-amplified). The class given is cell-based. The conditions noted are these: Homo sapiens, 120 h, 5-day incubation, not amplified (NA).
From the text: as §1, §2, §4

In experiment [7] the test system is Cama1 (NA). Put plainly: SRB proliferation assay, Cama1 (non-amplified). The class given is cell-based. The following applies: Homo sapiens, CAMA-1, 120 h; 5-day incubation; Cama1, not amplified (NA).
From the text: as §1, §2, §4

For experiment [8], the system named is Phospho-p38, Phospho-p53 S15, cleaved PARP in SMOV2 cells. The experiment in a line: Western blot analysis of biomarker modulation in SMOV2 cells. The conditions noted are these: 24 hours treatment, FIG. 1. The class given is cell-based, human. The method, then:
FIG. 1 provides an image showing the results of a Western Blot (LDS-PAGE gel) for cleaved PARP, Phospho-p53 S15, Phospho-p38, and GAPDG, confirming modulation of the biomarkers expected for PP1 MD-mediated inhibition in SMOV2 cells as described in Example 2.
Biomarker modulation by representative compounds was assessed by Western blot analysis in SMOV2 cells using the following procedure:
On day one, 3×10^5 cells were plated per well in a 6 well plate. Next day cells were treated with DMSO control or indicated concentrations of the representative compounds for 24 hours. Treated cells were lysed in complete lysis buffer (50 mM NaCl, 20 mM Tris pH7.5, 1 mM EDTA, 1 mM EGTA, 1% Triton X100, 10 mM NaF, protease Inhibitor tablet and phosphatase inhibitor cocktails) on ice for 10 min. Soluble proteins were separated by centrifugation, and protein concentration was measured using Bradford assay. Samples with equal amount of proteins were prepared and run on LDS-PAGE. Separated proteins were transferred to the nitrocellulose membrane and probed with the Phospho-p38, Phospho-p53 S15, cleaved PARP, γ-H2AX and GAPDH antibodies.

Setting [9] is: 72 h, 3-day incubation, read-out: GI50 3-day SMOV2 (A) SRB.
[10] abbreviates: 120 h, 5-day incubation, read-out: GI50 5-day SMOV2 (A) SRB.

Where two headings read alike, the source gives them in different places. Some results are limits rather than exact numbers.

By GI50 is commonly meant the concentration that inhibits growth by half.

Regarding `COCCOCc1cc(F)ccc1-c1nc(-c2ccc3[nH]c(=O)[nH]c3c2)cs1` [Compound 32, 5-(2-(4-fluoro-2-((2-methoxyethoxy)methyl)phenyl)thiazol-4-yl)-1H-benzo[d]imidazol-2(3H)-one], the GI50 in experiment [1] (setting [9]) is 4.8 nM; in experiment [1] (setting [10]), 1.6 nM; in experiment [2] (Homo sapiens, 120 h), greater than 10000 nM; in experiment [3], 4.6 nM; in experiment [4] it was 36 nM; in experiment [5], greater than 10000 nM. In addition, the GI50 in experiment [6] turned out to be 5600 nM; in experiment [7] it was 3900 nM. The “biomarker modulation (Western blot: cleaved PARP, Phospho-p53 S15, Phospho-p38)” value in experiment [8] is given as “modulation of the biomarkers expected for PP1MD-mediated inhibition”.

Take `NCCOCc1cc(F)ccc1-c1nc(-c2ccc3[nH]c(=O)oc3c2)cs1` [Compound 19, 6-(2-(2-((2-aminoethoxy)methyl)-4-fluorophenyl)thiazol-4-yl)benzo[d]oxazol-2(3H)-one]: the GI50 in experiment [1] (setting [9]) amounted to 1.4 nM; in experiment [1] (setting [10]), 5 nM; in experiment [2], 1700 nM; in experiment [2] (Homo sapiens, 120 h), 1200 nM.

On to `O=c1[nH]c2ccc(-c3csc(-c4ccc(F)cc4CF)n3)cc2o1` [Compound 12, 6-(2-(4-fluoro-2-(fluoromethyl)phenyl)thiazol-4-yl)benzo[d]oxazol-2(3H)-one], for which the GI50 was found to be 2 nM in experiment [1] (setting [9]); 0.3 nM in experiment [1] (setting [10]); 5200 nM in experiment [2] (Homo sapiens, 120 h).

These data come from patent US9550764B2, “Fused heterocyclic compounds and their use” (The Institute of Cancer Research: Royal Cancer Hospital, priority 2012, dated 2017).
